Laboratory results as given in patent US20170281611A1, “QUINOLINES AND THEIR USE FOR TREATING ENDOPLASMIC RETICULUM STRESS-CAUSED DISEASES” (EIGER BIOPHARMACEUTICALS, INC., priority 2014, published 2017).
Where two headings read alike, the source gives them in different places. One block for each compound: values may come before it.

Experiments:
CSM14.1 cells = assay: ER stress cell survival assay (thapsigargin, […]-GLO); assay type: cell-based; conditions: dose-response
Method: CSM14.1 cells were maintained in Complete Medium at 32° C.; wherein the Complete Medium contained Dulbecco's modified eagle medium (DMEM) with 10% fetal bovine serum (FSB), 1% L-glutamine, 100 IU/mL penicillin, and 100 μg/mL streptomycin. The cells were recovered from cultures by trypsinization and then seeded in 384 well plates (Greiner #781098) at a concentration of 1,000 cells/well in 20 μL of DMEM Assay Medium, wherein the DMEM Assay Medium contained 2% FBS, 100 IU/mL penicillin, and 100 μg/mL streptomycin. Seeding was performed using a MultiDrop Combi reagent broadcaster. The plates were incubated overnight at 32° C.
A test compound was prepared by 2-fold serial dilution in 100% DMSO using a BIOMEK® 2000 liquid handler (Beckman Coulter). A dose-response curve containing 10 concentrations of the test compound was obtained. Using a BIOMEK® FX liquid handler (Beckman Coulter), 2.5 μL of the test compound was transferred from the 100% DMSO serial dilution plate to an intermediate plate containing 47.5 μL of DMEM Assay Medium containing 2% FBS, 100 IU/mL penicillin, and 100 μg/mL streptomycin and mixed. To reduce or eliminate the interference from the compound's precipitation, 6 μL of the diluted compound was immediately transferred to the assay plate to achieve a high compound concentration of 100 μM in 99% DMEM Assay Medium and 1% DMSO. After the assay plates were incubated for 2 hrs, 4 μL of 112.5 μM thapsigargin (TG) (DMSO stock diluted into Assay TC Medium) was dispensed into each testing well with a MultiDrop Combi reagent broadcaster for a final concentration of about 15 μM TG. The tissue culture media (4 μL) containing vehicle only was transferred manually to each control cell using a 16 channel electronic pipette. […] High luminescence indicates cell survival.
Alternatively, a test compound was tested at a single compound concentration (e.g., 2 μM) to determine the effect of the compound on cell survival in comparison with vehicle.

[1] = Pharmacokinetics in Sprague Dawley rats (Table 4); assay type: in vivo; conditions: rat; for AUC(0-inf) / AUC(0-t) / Cmax / Tmax / clearance / half-life / MRT inf / Vd: Sprague Dawley, in vivo; for MRT inf: read-out: MRT0-∞; for Vd: read-out: Vz; for F: PO (10 mg/kg) vs IV (2 mg/kg)
Source text: Compound D1 was formulated in 0.3% DMA/1% SOLUTOL®/98.7% saline. Compound D6 was formulated in 0.5% DMA/1% SOLUTOL®/94.5% 0.01N HCl in saline/4% NaOH (pH 4-5).

[2] = Pharmacokinetics in Beagle dogs (Table 5); assay type: in vivo; conditions: dog; for MRT inf: read-out: MRT0-∞
Method: For pharmacokinetic evaluation, 3 male Beagle dogs were intravenously (IV) dosed (1 mg/kg body weight) and 3 male Beagle dogs were orally (PO) dosed (10 mg/kg body weight) with a test compound. Blood (approximately 1.0 mL) was collected via femoral vein into tubes containing K3EDTA anticoagulant at 0, 0.017, 0.083, 0.5, 1, 2, 4, 6, 8, and 24 hours post-dosing. Plasma samples were analyzed by LC-MS/MS. The analytical results were confirmed using quality control samples for intra-assay variation. The accuracy of >66% of the quality control samples was between 80-120% of the known value(s). A standard set of pharmacokinetic parameters were generated from concentration data including Area Under the Curve (AUC0-t and AUC0-inf), elimination half-lives, clearances, volume of distribution and bioavailabilities (based on AUC0-t), maximum plasma concentration (C0; Cmax), and time to reach maximum plasma concentration (Tmax).

[3] = test system: human foreskin fibroblast (HFF) cells; assay: Toxicity in human foreskin fibroblast cells; assay type: cell-based; conditions: 100 μM
BT474 Cells = assay: In vitro anticancer activity, monolayers (2D) and spheroids (3D), BT474; assay type: cell-based; conditions: Homo sapiens
Method: (§1) The anticancer activity of a test compound was determined in vitro using mammalian tumor cells that grew as monolayers and spheroids. Spheroids represent the three-dimensional growth and organization of solid tumors, and thus are an intermediate model between monolayers of cells in culture and tumors in vivo. The cancer cell line tested was a breast cancer cell line, BT474. Normal breast tissue cells (MCF10A) were used as a control. The viability/proliferation of the cells were measured using […]-GLO® reagent.

MCF10A Cells = assay: In vitro viability, monolayers (2D) and spheroids (3D), normal breast tissue cells; assay type: cell-based; conditions: Homo sapiens, MCF-10A
Method: as §1

SERCA, cardiac SR = target: T1, SERCA, cardiac SR; assay: Activation of SERCA, NADH-linked enzyme-coupled ATPase assay, cardiac SR; assay type: biochemical; conditions: read-out: CSR EC50
T1 construct: 2 mg or 7 mg of SR vesicles (optimized for skeletal or cardiac SR, respectively); from tissue; host or cells: cardiac sarcoplasmic reticulum vesicles
T1 sequence (P16615 1-997 isoform P16615-2): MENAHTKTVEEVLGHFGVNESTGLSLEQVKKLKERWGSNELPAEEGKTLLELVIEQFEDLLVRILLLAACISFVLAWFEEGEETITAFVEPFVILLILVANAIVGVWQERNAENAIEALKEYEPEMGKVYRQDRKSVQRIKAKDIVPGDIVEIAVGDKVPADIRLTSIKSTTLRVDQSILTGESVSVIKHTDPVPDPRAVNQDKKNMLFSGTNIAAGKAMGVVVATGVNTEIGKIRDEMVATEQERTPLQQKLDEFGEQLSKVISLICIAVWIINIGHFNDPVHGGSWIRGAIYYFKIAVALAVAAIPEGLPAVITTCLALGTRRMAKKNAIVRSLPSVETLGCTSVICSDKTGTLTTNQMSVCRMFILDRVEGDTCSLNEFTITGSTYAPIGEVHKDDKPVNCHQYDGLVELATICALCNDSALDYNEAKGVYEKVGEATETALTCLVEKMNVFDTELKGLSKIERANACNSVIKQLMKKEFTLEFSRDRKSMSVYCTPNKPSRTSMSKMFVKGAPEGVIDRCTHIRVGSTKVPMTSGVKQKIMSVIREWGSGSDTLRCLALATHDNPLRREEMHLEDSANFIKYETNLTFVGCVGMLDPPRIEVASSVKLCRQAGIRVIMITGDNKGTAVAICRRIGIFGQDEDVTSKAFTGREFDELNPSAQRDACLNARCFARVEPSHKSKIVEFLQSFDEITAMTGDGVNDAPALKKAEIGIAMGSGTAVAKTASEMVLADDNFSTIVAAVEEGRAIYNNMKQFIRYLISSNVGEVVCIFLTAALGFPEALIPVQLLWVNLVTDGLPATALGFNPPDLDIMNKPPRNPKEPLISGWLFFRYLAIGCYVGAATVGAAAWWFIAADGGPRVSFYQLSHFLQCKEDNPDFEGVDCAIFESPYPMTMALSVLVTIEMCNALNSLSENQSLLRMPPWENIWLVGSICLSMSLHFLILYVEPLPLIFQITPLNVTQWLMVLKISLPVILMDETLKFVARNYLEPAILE
Method: Test compounds were characterized over a range of concentrations using an NADH-linked, enzyme-coupled ATPase assay. Each well contained 2 mg or 7 mg of SR vesicles (optimized for skeletal or cardiac SR, respectively), 50 mM MOPS (pH 7.0), 100 mM KCl, 5 mM MgCl2, 1 mM EGTA, 0.2 mM NADH, 1 mM phosphoenol pyruvate, 5 IU pyruvate kinase, 5 IU lactate dehydrogenase, and 3.5 mg/mL A23187 (a calcium ionophore), and CaCl2 was added to set free [Ca2+] to the specific values. The assay was started upon addition of ATP at a final concentration of 5 mM, and read in a SpectraMax Plus microplate spectrophotometer and the ATPase activities were fitted using the Hill function.

SERCA = assay: Activation of SERCA, increase in Vmax (SR type not given); assay type: biochemical
[4] = male, Beagle, plasma, IV (1 mg/kg)
[5] = male, Beagle, plasma, PO (10 mg/kg)

SMILES: O=C(c1cccc(Cl)c1)N1CCN(c2ccnc3cc(Cl)ccc23)CC1 [Compound D3, (3-Chlorophenyl)(4-(7-chloroquinolin-4-yl)piperazin-1-yl)methanone]
EC50 (CSM14.1 cells): 20 to 100 µM

SMILES: Cc1ccc(C(=O)N2CCN(c3ccnc4cc(Cl)ccc34)CC2)cc1Cl [Compound D5, (3-Chloro-4-methylphenyl)(4-(7-chloroquinolin-4-yl)piperazin-1-yl)methanone]
EC50 (CSM14.1 cells): < 20 µM

SMILES: CC(C)Oc1ccc(C(=O)Nc2cccc3cccnc23)cc1 [Compound A11, 4-Isopropoxy-N-(quinolin-8-yl)benzamide]
EC50 (SERCA, cardiac SR): < 20 µM

SMILES: CCNc1ccc(C(=O)Nc2cccc3ccc(C)nc23)cc1 [Compound J1, 4-(Ethylamino)-N-(2-methylquinolin-8-yl)benzamide]
EC50 (CSM14.1 cells): < 20 µM | Increase in Vmax at 10 μM (SERCA): A′ (A′ represents an increase greater than 50%)

Further lines, with some results ahead:

AUC(0-inf) ([1]; IV (2 mg/kg)): 5900 ± 454 ng·h/mL | AUC(0-t) ([1]; IV (2 mg/kg)): 5880 ± 453 ng·h/mL | Cmax ([1]; IV (2 mg/kg)): 18.6 ± 1.33 µM | Tmax ([1]; IV (2 mg/kg)): 1.2 min | clearance ([1]; IV (2 mg/kg)): 5.67 mL/min/kg | half-life ([1]; IV (2 mg/kg)): 193 ± 23.4 min | MRT inf ([1]; IV (2 mg/kg)): 2.98 ± 0.17 h | Vd ([1]; IV (2 mg/kg)): 1.57 ± 0.2 L/kg | AUC(0-inf) ([1]; PO (10 mg/kg)): 162000 ± 11900 ng·h/mL | AUC(0-t) ([1]; PO (10 mg/kg)): 24600 ± 4100 ng·h/mL | Cmax ([1]; PO (10 mg/kg)): 15.3 ± 3.86 µM | Tmax ([1]; PO (10 mg/kg)): 34.8 ± 22.8 min | half-life ([1]; PO (10 mg/kg)): 166 ± 41.4 min | MRT inf ([1]; PO (10 mg/kg)): 3.93 ± 0.41 h | F [1]: 84%
SMILES: O=C(c1ccccc1)N1CCN(c2ccnc3cc(Cl)ccc23)CC1 [Compound D1, (4-(7-Chloroquinolin-4-yl)piperazin-1-yl)(phenyl)methanone]
EC50 (CSM14.1 cells): 20 to 100 µM

F ([2]; PO (10 mg/kg) vs IV (1 mg/kg), based on AUC0-t): 82% | AUC(0-inf) [2, 4]: 14300 ± 2220 ng·h/mL | AUC(0-t) [2, 4]: 13900 ± 2100 ng·h/mL | Cmax [2, 4]: 12.7 ± 2.4 µM | Tmax [2, 4]: 1.2 min | clearance [2, 4]: 1.17 mL/min/kg | half-life [2, 4]: 288 ± 24 min | MRT inf [2, 4]: 5.6 ± 0.4 h | Vd ([2]; male, Beagle, plasma, IV (1 mg/kg), read-out: Vz): 0.49 ± 0.04 L/kg | AUC(0-inf) [2, 5]: 114000 ± 15500 ng·h/mL | AUC(0-t) [2, 5]: 110000 ± 15500 ng·h/mL | Cmax [2, 5]: 26.5 ± 1.9 µM | Tmax [2, 5]: 49.8 ± 17.4 min | half-life [2, 5]: 288 ± 36 min | MRT inf [2, 5]: 7 ± 0.3 h | AUC(0-inf) ([1]; IV (2 mg/kg)): 8640 ± 650 ng·h/mL | AUC(0-t) ([1]; IV (2 mg/kg)): 8600 ± 659 ng·h/mL | Cmax ([1]; IV (2 mg/kg)): 39.7 ± 1.06 µM | Tmax ([1]; IV (2 mg/kg)): 1.2 min | clearance ([1]; IV (2 mg/kg)): 3.83 mL/min/kg | half-life ([1]; IV (2 mg/kg)): 58.8 ± 7.8 min | MRT inf ([1]; IV (2 mg/kg)): 0.98 ± 0.09 h | Vd ([1]; IV (2 mg/kg)): 0.33 ± 0.03 L/kg | AUC(0-inf) ([1]; PO (10 mg/kg)): 21200 ± 1940 ng·h/mL | AUC(0-t) ([1]; PO (10 mg/kg)): 19900 ± 1510 ng·h/mL | Cmax ([1]; PO (10 mg/kg)): 13 ± 3.56 µM | Tmax ([1]; PO (10 mg/kg)): 25.2 ± 8.4 min | half-life ([1]; PO (10 mg/kg)): 107 ± 23.4 min | MRT inf ([1]; PO (10 mg/kg)): 2.96 ± 0.66 h | F [1]: 44% | IC50 (BT474 Cells; BT-474, monolayers (2D), read-out: IC50 (2D)): 5 µM | IC50 (BT474 Cells; BT-474, spheroids (3D), read-out: IC50 (3D)): 8 µM
SMILES: O=C(c1ccc(N2CCCC2)c([N+](=O)[O-])c1)N1CCN(c2ccnc3cc(Cl)ccc23)CC1 [Compound D6, (4-(7-Chloroquinolin-4-yl)piperazin-1-yl)(3-nitro-4-(pyrrolidin-1-yl)phenyl)methanone]
EC50 (CSM14.1 cells): < 20 µM | toxicity in HFF cells [3]: no toxicity | IC50 (MCF10A Cells; monolayers (2D), read-out: IC50 (2D)): > 50 µM | IC50 (MCF10A Cells; spheroids (3D), read-out: IC50 (3D)): > 50 µM

EC50 (SERCA, cardiac SR): < 20 µM
SMILES: O=C(Nc1cccc2cccnc12)c1cccc(F)c1 [Compound A7, 3-Fluoro-N-(quinolin-8-yl)benzamide]
